Results from patent US10646475B2, “SHMT inhibitors” (The Trustees of Princeton University, priority 2015, dated 2020).
pIC50: −log10 of the molar value. “Also recorded” adds a separate entry of the source. Each block holds one molecule with its values, some of them ahead of it.

How the values were obtained:
[1] = target: T1, human SHMT1 (Homo sapiens, UniProt P34896); test: SHMT1 in vitro coupled enzymatic assay (coupled with excess MTHFD2, NADH absorption at 340 nm); assay type: biochemical; details: for pIC50: inhibition of initial reaction velocity
T1 sequence (P34896 1-483): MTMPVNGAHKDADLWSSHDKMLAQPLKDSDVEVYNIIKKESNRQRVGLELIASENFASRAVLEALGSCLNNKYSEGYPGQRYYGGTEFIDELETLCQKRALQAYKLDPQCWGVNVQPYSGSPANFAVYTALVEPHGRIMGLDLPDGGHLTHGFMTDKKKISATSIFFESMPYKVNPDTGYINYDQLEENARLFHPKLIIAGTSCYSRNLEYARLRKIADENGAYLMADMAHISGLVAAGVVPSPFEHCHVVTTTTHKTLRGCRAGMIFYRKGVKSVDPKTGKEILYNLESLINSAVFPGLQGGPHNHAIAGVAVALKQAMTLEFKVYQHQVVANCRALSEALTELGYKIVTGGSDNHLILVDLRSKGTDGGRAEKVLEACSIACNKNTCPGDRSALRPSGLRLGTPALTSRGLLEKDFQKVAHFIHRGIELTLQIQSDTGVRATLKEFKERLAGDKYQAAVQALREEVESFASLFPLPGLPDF

[2] = target: T2, human SHMT2 (Homo sapiens, UniProt P34897); test: SHMT2 in vitro coupled enzymatic assay (coupled with excess MTHFD2, NADH absorption at 340 nm); assay type: biochemical; details: for pIC50: inhibition of initial reaction velocity
T2 sequence (P34897 30-504): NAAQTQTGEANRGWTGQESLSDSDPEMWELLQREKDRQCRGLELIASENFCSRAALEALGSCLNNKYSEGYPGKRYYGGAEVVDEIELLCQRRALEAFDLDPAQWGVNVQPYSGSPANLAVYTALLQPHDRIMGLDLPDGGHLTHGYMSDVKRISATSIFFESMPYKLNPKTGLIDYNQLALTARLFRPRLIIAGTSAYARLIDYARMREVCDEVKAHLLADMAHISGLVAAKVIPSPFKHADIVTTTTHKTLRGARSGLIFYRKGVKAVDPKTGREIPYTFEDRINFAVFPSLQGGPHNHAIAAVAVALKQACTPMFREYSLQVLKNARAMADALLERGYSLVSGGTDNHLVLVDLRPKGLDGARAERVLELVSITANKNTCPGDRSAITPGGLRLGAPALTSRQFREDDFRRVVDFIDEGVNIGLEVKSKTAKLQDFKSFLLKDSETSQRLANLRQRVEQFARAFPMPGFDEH

[3] = target: T3, human MTHFD2 (Homo sapiens, UniProt P13995); test: MTHFD2 in vitro assay (rate of NADH formation at 340 nm); assay type: biochemical; details: FIG. 3(c)
T3 sequence (P13995 36-350): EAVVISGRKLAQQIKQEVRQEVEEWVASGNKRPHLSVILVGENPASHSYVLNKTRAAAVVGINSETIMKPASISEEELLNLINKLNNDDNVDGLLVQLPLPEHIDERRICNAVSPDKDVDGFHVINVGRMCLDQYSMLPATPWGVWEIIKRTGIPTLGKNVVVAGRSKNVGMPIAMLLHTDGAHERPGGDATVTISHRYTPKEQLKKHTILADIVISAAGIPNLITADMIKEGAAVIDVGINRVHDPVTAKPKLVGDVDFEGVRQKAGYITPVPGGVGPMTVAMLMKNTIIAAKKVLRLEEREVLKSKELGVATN
Excerpt: For the MTHFD2 in vitro assay (FIG. 3(c)), the rate of NADH formation was directly monitored at 340 nm.

[4] = system: HCT116 human colon carcinoma cells; test: Cancer cell growth assay (resazurin), HCT116; assay type: cell-based; details: HCT116, varying concentrations, FIG. 7
Method: (§1) Inhibitors of SHMT were evaluated in various cancer cell lines. […] This cancer cell line comprises (harbors) a mutation in a component of the mitochondrial folate pathway. Specifically, one or more cells in this line comprise a mutation in the downstream mitochondrial folate enzyme, MTHFD1L.
(§2) The described cell lines used in Examples 9-11 were cultured in 96-well plates in Dulbecco's modified eagle media (DMEM) without pyruvate (CELLGRO) with 10% dialysed fetal bovine serum (Invitrogen) in 5% CO2 at 37° C. Approximately 2,500 cells were plated in each well in 90 uL of media. After 24 hours cells were treated with various concentrations of inhibitor (time=0 hours), with or without formate. Growth was assessed at multiple time points (time=0, 24, 48, 72 hours) through measurement of fluorescence at 595 nm (excitation at 535 nm) on a BioTek micro titer plate reader after incubation with resazurin (0.01 mg/mL for 1.5 hours). IC50 curves were generated from percent inhibition of growth at 72 hours.

[5] = system: 8988T pancreatic cancer cells; test: Cancer cell growth assay (resazurin), 8988T; assay type: cell-based, human; details: 8988T (MTHFD1L mutation), varying concentrations, FIG. 7
Method: as §1, §2

[6] = system: HEK293T cells; test: Cell growth assay (resazurin), wild-type HEK293T; assay type: cell-based, human; details: for inhibition of cell growth: varying concentrations
Method: HEK293T cells were cultured in 96-well plates in Dulbecco's modified eagle media (DMEM) without pyruvate with 10% dialysed fetal bovine serum (Invitrogen) in 5% CO2 at 37° C. 24 hours after plating, cells were treated with various concentrations of inhibitor. Growth was serially assessed using the resazurin (‘AlamarBlue’) assay.
as §2

[7] = system: SHMT2 knock-out HEK293 cells; test: Cell growth assay (resazurin), SHMT2 knock-out 293T; assay type: cell-based, human; details: varying concentrations
Method: HEK293T cell lines mutant for SHMT1 and SHMT2 were created using the CRISPR-Cas9 system following standard published protocols. Single clones from successful transfections were grown up, genotyped and characterized.
(§3) Inhibitors of SHMT were evaluated in wildtype, SHMT2 knock-out, and MTHFD2 knock-out 293T cells (FIG. 6(a) and FIG. 6(b)).
as §2

[8] = system: MTHFD2 knock-out HEK293T cells; test: Cell growth assay (resazurin), MTHFD2 knock-out 293T; assay type: cell-based, human; details: varying concentrations
Method: as §3, §2

[9] = system: SHMT serine metabolic activity in SHMT2 expressing human cells; test: Isotope labeling of serine metabolism in cells (labeled serine, LC-MS); assay type: cell-based; details: uniformly labeled serine, FIG. 2(c)
Method: Using 2,3,3-^2H3-serine (D3-serine) as a tracer, mitochondrial flux was measured by quantifying the labeling pattern of dTTP, a downstream product of dTMP. […] This assay was used to examine mitochondrial serine flux and the effect of compounds of the disclosure on mitochondrial serine flux, in either wildtype or mutant cells.
Uniformly labeled serine is metabolized into various isoptomers in WT cells by the forward and reverse enzymatic activity of SHMT.

[10] = system: human cells expressing SHMT2; test: Measurement of AICAR, marker for one-carbon unit stress, in cells; assay type: cell-based; details: treatment for 24 hours, increasing concentrations, FIG. 2(b)
Method: HEK-293T cells were cultured in 6-well plates in Dulbecco's modified eagle media (DMEM) without pyruvate with 10% dialysed fetal bovine serum in 5% CO2 at 37° C. […] Growth was quenched and metabolites extracted by aspirating media, washing cells with cold PBS, and immediately adding MeOH/water (80:20 at −80° C.). Supernatants from two rounds of extraction were combined, dried under N2, resuspended in water, placed in a 4° C. autosampler, and analyzed by reverse-phase ion-paring chromatography negative-mode electrospray-ionization high-resolution MS on a stand-alone orbitrap.
Generation of AICAR provides an assay to evaluate one-carbon unit stress. Inhibition of SHMT2 in cells decreases serine metabolism and leads to one-carbon stress. […] Such cells show high constitutive levels of 5-aminoimidazole-4-carboxamide ribonucleotide (AICAR), a marker for one-carbon unit stress, when cultured in media (left bar in FIG. 2(a)). This can be rescued by exogenous treatment with sodium formate (right bar in FIG. 2(a)).
(*) indicates AICAR was below the limit of detection.

pIC50 ([1]; Table A): 7.70
pIC50 ([2]; Table A): 7.46
inhibition of human MTHFD2 in enzymatic assays [3]: do not inhibit
Compound: Cc1n[nH]c2c1C(c1cc(Cl)cc(C(F)(F)F)c1)(C(C)C)C(C#N)=C(N)O2 (racemic) [HK-15]

activity against SHMT1 in an in vitro enzyme assay ([1]; FIG. 4(b)): active
Compound: Cc1n[nH]c2c1C(c1cc(C(F)(F)F)cc(C(F)(F)F)c1)(C(C)C)C(C#N)=C(N)O2 (stereo not shown) [HK-16 (PK-2)]
inhibition of cancer cell growth ([4]; listed as HK-16-P2): inhibits cancer cell growth; also recorded: inhibited growth
anti-SHMT2 activity of resolved enantiomers of HK-16 ([2]; FIG. 4(a)): confined to the enantiomer represented by “Peak 2”
inhibition of cancer cell growth ([5]; listed as HK-16 (peak 2)): more sensitive
inhibition of cancer cell growth ([5]; listed as HK-16-P2): significantly more sensitive; also recorded: inhibited growth
rescue of growth inhibitory effects by formate ([6]; compound at 10 μM, co-culture with formate at 1 mM, FIG. 8): rescued
inhibition of cell growth ([6]; FIG. 5, 6, listed as HK-16-P2): active
inhibition of cell growth ([6]; FIG. 5, 6, listed as Peak 2): inhibited in a dose-dependent manner; also recorded: inhibited cell growth
inhibition of cell growth ([7]; FIG. 6, listed as HK-16-P2): active; also recorded: increased sensitivity to inhibition
inhibition of cell growth ([7]; FIG. 6, listed as Peak 2): inhibited cell growth
inhibition of cell growth ([8]; FIG. 6, listed as HK-16-P2): active; also recorded: increased sensitivity to inhibition
inhibition of cell growth ([8]; FIG. 6, listed as Peak 2): inhibited cell growth

pIC50 ([1]; table of Example 6): < 5.30
pIC50 ([2]; table of Example 6): < 5.30
Compound: Cc1nn(C)c2c1C(c1cc(C(F)(F)F)cc(C(F)(F)F)c1)(C(C)C)C(C#N)=C(N)O2 (stereo not shown) [KDG-4]

inhibition of human MTHFD2 in enzymatic assays [3]: do not inhibit
Compound: COc1cccc(C2(C3CCC3)C(C#N)=C(N)Oc3[nH]nc(C)c32)c1 (racemic) [HK-2]

pIC50 ([1]; table of Example 6): < 5.30
pIC50 ([2]; table of Example 6): < 5.30
Compound: Cc1nn(-c2ccccc2)c2c1C(c1cc(C(F)(F)F)cc(C(F)(F)F)c1)(C(C)C)C(C#N)=C(N)O2 (stereo not shown) [KDG-5]

pIC50 ([2]; Table A): 5.92
pIC50 ([2]; table of Example 6): 5.92
Compound: Cc1n[nH]c2c1C(c1cccc(Cl)c1)(C1CCC1)C(C#N)=C(N)O2 (stereo not shown) [HK-3]

pIC50 ([2]; Table A): 5.46
pIC50 ([2]; table of Example 6): 5.46
Compound: COc1cc(Cl)cc(C2(C3CCC3)C(C#N)=C(N)Oc3[nH]nc(C)c32)c1 (stereo not shown) [HK-9]

pIC50 ([1]; Table A): 6.69
pIC50 ([1]; table of Example 6): 6.69
pIC50 ([2]; Table A): 6.77
pIC50 ([2]; table of Example 6): 6.77
Compound: Cc1n[nH]c2c1C(c1cc(C(F)(F)F)cc(C(F)(F)F)c1)(C1CCC1)C(C#N)=C(N)O2 (stereo not shown) [HK-12]

pIC50 ([2]; Table A): 7.00
pIC50 ([2]; table of Example 6): 7.00
Compound: Cc1n[nH]c2c1C(c1cc(Cl)cc(C(F)(F)F)c1)(C1CCC1)C(C#N)=C(N)O2 (stereo not shown) [HK-11]

pIC50 ([2]; Table A): 6.40
pIC50 ([2]; table of Example 6): 6.40
Compound: Cc1n[nH]c2c1C(c1cccc(Cl)c1)(C(C)C)C(C#N)=C(N)O2 (stereo not shown) [HK-7]

inhibition of human MTHFD2 in enzymatic assays [3]: do not inhibit
Compound: Cc1n[nH]c2c1C(c1cc(C(F)(F)F)cc(C(F)(F)F)c1)(C(C)C)C(C#N)=C(N)O2 (racemic) [HK-16]
SHMT serine metabolic activity in cells [9]: inhibited in cells by HK-16 in a dose-dependent manner
AICAR accumulation [10]: AICAR accumulation in a dose-dependent manner

pIC50 ([2]; Table A): 5.34
pIC50 ([2]; table of Example 6): 5.34
Compound: COc1cccc(C2(C(C)C)C(C#N)=C(N)Oc3[nH]nc(C)c32)c1 (stereo not shown) [HK-6]

pIC50 ([2]; Table A): 6.80
Compound: Cc1n[nH]c2c1C(c1cc(Cl)cc(Cl)c1)(C1CCC1)C(C#N)=C(N)O2 (racemic) [HK-10]

pIC50 ([2]; Table A): 6.30
pIC50 ([2]; table of Example 6): 6.30
Compound: COc1cc(Cl)cc(C2(C(C)C)C(C#N)=C(N)Oc3[nH]nc(C)c32)c1 (stereo not shown) [HK-13]

pIC50 ([1]; Table A): 7.17
pIC50 ([2]; Table A): 6.88
Compound: Cc1n[nH]c2c1C(c1cc(Cl)cc(Cl)c1)(C(C)C)C(C#N)=C(N)O2 (racemic) [HK-14]

pIC50 ([1]; table of Example 6): 8.03
pIC50 ([2]; table of Example 6): 7.15
Compound: CC(C)c1n[nH]c2c1C(c1cc(C(F)(F)F)cc(C(F)(F)F)c1)(C(C)C)C(C#N)=C(N)O2 (stereo not shown) [KDG-12]

Compound: Cc1n[nH]c2c1C(c1cc(C(F)(F)F)cc(C(F)(F)F)c1)(C(C)C)C(C#N)=C(N)O2 (single isomer, unassigned) [HK-16 (PK-1)]
inhibition of cancer cell growth ([4]; listed as HK-16-P1): does not inhibit cell growth
inhibition of cell growth ([6]; FIG. 5, 6): not inhibited
inhibition of cell growth ([6]; FIG. 5, 6, listed as HK-16-P1): significantly less or no effect
inhibition of cell growth ([6]; FIG. 5, 6, listed as Peak 1): not appreciably inhibited; also recorded: little or no activity
inhibition of cell growth ([7]; FIG. 6, listed as HK-16-P1): significantly less or no effect
inhibition of cell growth ([7]; FIG. 6, listed as Peak 1): Some, although a lower degree of activity
inhibition of cell growth ([8]; FIG. 6, listed as HK-16-P1): significantly less or no effect
inhibition of cell growth ([8]; FIG. 6, listed as Peak 1): Some, although a lower degree of activity
